One compound from article PMC11892714 (OTA International, 2025) can be followed below.

The data set can be described thus: Vancomycin pharmacokinetics, serum concentration after IO vs IV delivery. As to conditions: rabbit, samples T0-T6, LC-MS/MS (Fig. 7A). The format is in vivo, New Zealand White rabbits.

For `CN[C@H](CC(C)C)C(=O)N[C@H]1C(=O)N[C@@H](CC(N)=O)C(=O)N[C@H]2C(=O)N[C@H]3C(=O)N[C@H](C(=O)N[C@H](C(=O)O)c4cc(O)cc(O)c4-c4cc3ccc4O)[C@H](O)c3ccc(c(Cl)c3)Oc3cc2cc(c3O[C@@H]2O[C@H](CO)[C@@H](O)[C@H](O)[C@H]2O[C@H]2C[C@](C)(N)[C@H](O)[C@H](C)O2)Oc2ccc(cc2Cl)[C@H]1O` [vancomycin], the “Serum vancomycin profile across time, IO delivery” value (30 mg/kg IO over 30 min) is “slight peak but remained at relatively consistent serum levels across time points”. The “Serum vancomycin profile across time, IV delivery” value (30 mg/kg IV over 30 min) is on record as “high systemic peak soon after bolus delivery with a steady decline across time”.
